From the supplement of paper PMC8671470

Assays:
Test in all cases: cell viability (% survival relative to DMSO control); higher = less cytotoxic
Conditions in all cases: 72 h
BV-173 = system: BV-173
Procedure: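 8x8 drug-combination matrices (0–5000 nM; rosiglitazone and lestaurtinib 0–1000 nM) were run in BV-173 cells for 72 h with CellTiter-Glo read-out. Survival is normalised to DMSO and 10 µM bortezomib and clipped at 100%.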

HL-60 = system: HL-60
Procedure: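 8x8 drug-combination matrices (0-5000 nM; rosiglitazone and lestaurtinib 0-1000 nM) were run in HL-60 cells for 72 h with a CellTiter-Glo read-out. Survival is normalised to DMSO and 10 µM bortezomib and clipped at 100%. Bliss synergy was analysed in SynergyFinder.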

MV4-11 = system: MV4-11
Procedure: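 8x8 drug-combination matrices (0–5000 nM; rosiglitazone and lestaurtinib 0–1000 nM) were run in MV4-11 cells for 72 h with CellTiter-Glo read-out. Survival is normalised to DMSO and 10 µM bortezomib and clipped at 100%.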

CN(CCOc1ccc(Cc2sc(O)nc2O)cc1)c1ccccn1 [Rosiglitazone] + c1cc(-c2cnn3cc(-c4ccc(OCCN5CCCCC5)cc4)cnc23)ccn1 [Dorsomorphin]
cell viability [%]
Conditions | drug1 concentration 1 nM | drug1 concentration 5 nM | drug1 concentration 10 nM | drug1 concentration 50 nM | drug1 concentration 100 nM | drug1 concentration 500 nM | drug1 concentration 1000 nM
BV-173, drug2 concentration 5 nM | > 100 | > 100 | > 100 | > 100 | > 100 | > 100 | 91.8
BV-173, drug2 concentration 10 nM | > 100 | > 100 | > 100 | 97.8 | > 100 | > 100 | > 100
BV-173, drug2 concentration 50 nM | 58.5 | > 100 | > 100 | > 100 | > 100 | > 100 | > 100
BV-173, drug2 concentration 100 nM | > 100 | 99.4 | > 100 | 77.2 | > 100 | > 100 | > 100
BV-173, drug2 concentration 500 nM | > 100 | > 100 | 94.2 | > 100 | > 100 | 98.4 | 95.3
BV-173, drug2 concentration 1000 nM | 91.7 | > 100 | 62.5 | > 100 | > 100 | > 100 | > 100
BV-173, drug2 concentration 5000 nM | 75.2 | 85 | 99.8 | 93.5 | 97.2 | > 100 | > 100
HL-60, drug2 concentration 5 nM | > 100 | 95 | 74 | > 100 | > 100 | 94.8 | > 100
HL-60, drug2 concentration 10 nM | > 100 | > 100 | > 100 | > 100 | > 100 | > 100 | > 100
HL-60, drug2 concentration 50 nM | 94.3 | > 100 | > 100 | > 100 | 81.2 | > 100 | > 100
HL-60, drug2 concentration 100 nM | 91.4 | > 100 | > 100 | > 100 | > 100 | > 100 | > 100
HL-60, drug2 concentration 500 nM | 90.8 | > 100 | 84.6 | > 100 | > 100 | 60.9 | > 100
HL-60, drug2 concentration 1000 nM | 88 | > 100 | 40.1 | > 100 | 86.7 | 87.6 | 96.3
HL-60, drug2 concentration 5000 nM | 12.7 | 33.1 | 33.7 | 24.4 | 65.7 | 82.5 | 90.1
MV4-11, drug2 concentration 5 nM | 96.5 | > 100 | > 100 | 98.4 | > 100 | > 100 | > 100
MV4-11, drug2 concentration 10 nM | > 100 | 97.3 | > 100 | 93.5 | > 100 | 83.4 | > 100
MV4-11, drug2 concentration 50 nM | > 100 | 98.2 | > 100 | > 100 | 84.9 | > 100 | > 100
MV4-11, drug2 concentration 100 nM | 98.3 | 98.1 | 99.6 | > 100 | > 100 | > 100 | 85.3
MV4-11, drug2 concentration 500 nM | 99 | 45.9 | 46.8 | 45.7 | 49 | 13 | 43.8
MV4-11, drug2 concentration 1000 nM | 26.1 | 20.7 | 21.6 | 23.8 | 7.5 | 23.4 | 16.8
MV4-11, drug2 concentration 5000 nM | 2.86 | 4.57 | 4.91 | 7.17 | 6.15 | 6.58 | 5.32

CCn1c(=Cc2cccc[n+]2CC)sc(=C2Sc3ccccc3N2C)c1=O [MKT 077] + CN(C)CCNC(=O)c1cccn2c(=O)c3cc4ccccc4cc3nc12 [Bmh-21]
cell viability [%]
Conditions | drug1 concentration 5 nM | drug1 concentration 10 nM | drug1 concentration 50 nM | drug1 concentration 100 nM | drug1 concentration 500 nM | drug1 concentration 1000 nM | drug1 concentration 5000 nM
BV-173, drug2 concentration 5 nM | 90.2 | > 100 | > 100 | > 100 | 82.7 | > 100 | 93.6
BV-173, drug2 concentration 10 nM | > 100 | > 100 | > 100 | > 100 | > 100 | > 100 | > 100
BV-173, drug2 concentration 50 nM | > 100 | > 100 | 86 | 90.4 | 86.5 | > 100 | > 100
BV-173, drug2 concentration 100 nM | > 100 | 96.7 | 94.6 | > 100 | 90.9 | > 100 | > 100
BV-173, drug2 concentration 500 nM | 4.65 | 59.5 | 45.4 | 34.8 | 46.4 | 11.4 | 49.9
BV-173, drug2 concentration 1000 nM | 0.56 | 28.5 | 1.73 | 66.5 | 1.33 | 2.69 | 6.83
BV-173, drug2 concentration 5000 nM | 0.22 | 1.2 | -0.65 | 0.37 | -0.07 | 0.15 | 6.67
HL-60, drug2 concentration 5 nM | 72.8 | > 100 | > 100 | > 100 | > 100 | > 100 | 82
HL-60, drug2 concentration 10 nM | 97.1 | 92.4 | > 100 | > 100 | 62.4 | > 100 | > 100
HL-60, drug2 concentration 50 nM | > 100 | 89.5 | > 100 | > 100 | 87.1 | > 100 | > 100
HL-60, drug2 concentration 100 nM | > 100 | > 100 | > 100 | > 100 | 85.5 | > 100 | > 100
HL-60, drug2 concentration 500 nM | 58.2 | 61.1 | 40.5 | 44.1 | 86 | 41.3 | 84.4
HL-60, drug2 concentration 1000 nM | 31.2 | 58.3 | 48.1 | 66.9 | 18.6 | 34.4 | 54.3
HL-60, drug2 concentration 5000 nM | 16.4 | 30.1 | -2.48 | 43.2 | 29.9 | 7.94 | 52
MV4-11, drug2 concentration 5 nM | 89 | 81.4 | > 100 | 87.9 | 90.8 | > 100 | 78.7
MV4-11, drug2 concentration 10 nM | 97.1 | > 100 | > 100 | 99.1 | 86 | 71 | > 100
MV4-11, drug2 concentration 50 nM | 86.2 | 86.7 | 88.4 | > 100 | 84.5 | > 100 | > 100
MV4-11, drug2 concentration 100 nM | > 100 | > 100 | 92.3 | 95.9 | 89.4 | 69.7 | > 100
MV4-11, drug2 concentration 500 nM | 70.6 | 88.8 | 78.3 | 87.8 | > 100 | 86.7 | 84.5
MV4-11, drug2 concentration 1000 nM | 87.2 | 46.6 | > 100 | 89.9 | 74.8 | 60.5 | 64.2
MV4-11, drug2 concentration 5000 nM | 31.1 | 35.2 | 31.4 | 63.2 | 25.9 | 24.1 | 37.5
